The structures appear in SMILES notation. Bounds are passed on as bounds.

This assay addresses SARS-CoV-2 3CL protease (Severe acute respiratory syndrome coronavirus 2, UniProt P0DTD1). Description: Inhibitory activity test against SARS-CoV-2 3CL proteases. It counts as biochemical. The following applies: read-out: IC50 (50% SARS-CoV-2 3CL protease inhibitory concentration).
As to `COc1cc(-c2nc3[nH]c(=O)[nH]c3cc2Cl)cc2c1c(=O)n(Cc1ncn(C)n1)c(=O)n2Cc1cc(F)c(F)c(F)c1` [Compound I-0001], the IC50 worked out at 5.3 nM.

Turning to `Cn1cnc(Cn2c(=O)c3c(F)cc(-c4cc5c(cc4Cl)NC(=O)C5)c(F)c3n(Cc3cc(F)c(F)c(F)c3)c2=O)n1` [Compound I-0002], the IC50 was found to be 6.2 nM.

As for `COc1cc(-c2nc3c(cc2Cl)NC(=O)C3)cc2c1c(=O)n(Cc1ncn(C)n1)c(=O)n2Cc1cc(F)c(F)c(F)c1` [Compound I-0005], the IC50 was 10 nM.

For `Cn1cnc(Cn2c(=O)c3c(F)cc(-c4cc5cn[nH]c5cc4Cl)c(F)c3n(Cc3cc(F)c(F)c(F)c3)c2=O)n1` [Compound I-0006], the IC50 is less than 100 nM.

For `Cn1cnc(Cn2c(=O)c3c(F)cc(-c4nc5c(cc4Cl)NC(=O)C54CC4)cc3n(Cc3cc(F)c(F)c(F)c3)c2=O)n1` [Compound I-0008], the IC50 came to 21 nM.

Turning to `Cn1cnc(Cn2c(=O)c3c(F)cc(-c4nc5c(cc4Cl)NC(=O)C5)cc3n(Cc3cc(F)c(F)c(F)c3)c2=O)n1` [Compound I-0009], the IC50 was found to be 21 nM.

Regarding `Cc1cncc(-n2c(=O)c3c(Cl)cc(-c4cc(C#N)ccc4Cl)cc3n(Cc3cc(F)c(F)c(F)c3)c2=O)c1` [Compound I-0012], the IC50 was less than 100 nM.

As for `Cc1cncc(-n2c(=O)c3c(Cl)cc(-c4cc(CO)ccc4Cl)cc3n(Cc3ccc(F)c(C#N)c3)c2=O)c1` [Compound I-0014], the IC50 is 30 nM.

Consider `Cc1cncc(-n2c(=O)c3c(Cl)cc(-c4cc(CO)ccc4Cl)cc3n(Cc3cc(F)c(F)c(F)c3)c2=O)c1` [Compound I-0016], for which the IC50 was less than 100 nM.

As for `COc1cc(-c2cc(C#N)ccc2Cl)cc2c1c(=O)n(-c1cncc(C)c1)c(=O)n2Cc1cc(F)c(F)c(F)c1` [Compound I-0026], the IC50 came out at 6.5 nM.

For `COc1cc(-c2cc(CO)ccc2Cl)cc2c1c(=O)n(-c1cncc(C)c1)c(=O)n2Cc1cc(F)c(F)c(F)c1` [Compound I-0030], the IC50 was 8.5 nM.

On to `COc1nc(-c2cc3c(cc2Cl)NC(=O)C3)cc2c1c(=O)n(Cc1ncn(C)n1)c(=O)n2Cc1cc(F)c(F)c(F)c1` [Compound I-0032], for which the IC50 amounted to 9.4 nM.

Consider `Cc1cncc(-n2c(=O)c3c(F)cc(-c4cc(C#N)ccc4Cl)cc3n(Cc3ccc(F)c(C#N)c3)c2=O)c1` [Compound I-0050], for which the IC50 was less than 100 nM.

Take `COc1cc(-c2cc3c(cc2Cl)NC(=O)C3)cc2c1c(=O)n(-c1cncc(C)c1)c(=O)n2Cc1ccc(F)c(C#N)c1` [Compound I-0060]: the IC50 was 2.7 nM.

In the case of `COc1cc(-c2cc(C(C)(C)O)ccc2Cl)cc2c1c(=O)n(-c1cncc(C)c1)c(=O)n2Cc1ccc(F)c(C#N)c1` [Compound I-0061], the IC50 worked out at 2.9 nM.

With `COc1cc(-c2cc(C(C)=O)ccc2Cl)cc2c1c(=O)n(-c1cncc(C)c1)c(=O)n2Cc1ccc(F)c(C#N)c1` [Compound I-0062], the IC50 amounted to 3.1 nM.

Regarding `COc1cc(-c2c(Cl)ccc3ncccc23)cc2c1c(=O)n(-c1cncc(C)c1)c(=O)n2Cc1ccc(F)c(C#N)c1` [Compound I-0068], the IC50 came to 5.8 nM.

On to `COc1cc(-c2cc(C(C)(C)O)ccc2Cl)cc2c1c(=O)n(-c1cncc(C)c1)c(=O)n2Cc1cc(F)c(F)c(F)c1` [Compound I-0069], for which the IC50 is 6 nM.

For `COc1cc(-c2cc(NS(C)(=O)=O)ccc2Cl)cc2c1c(=O)n(-c1cncc(C)c1)c(=O)n2Cc1cc(F)c(F)c(F)c1` [Compound I-0070], the IC50 turned out to be 9.8 nM.

Consider `O=C1Cc2cc(-c3cc(F)c4c(=O)n(-c5cncc(Cl)c5)c(=O)n(Cc5cc(F)c(F)c(F)c5)c4c3)c(Cl)cc2N1` [Compound I-0071], for which the IC50 was less than 100 nM.

As for `COc1cc(-c2cc(C(C)(C)O)ccc2Cl)cc2c1c(=O)n(-c1cncc(Cl)c1)c(=O)n2Cc1cc(F)c(F)c(F)c1` [Compound I-0075], the IC50 came out at 18 nM.

In the case of `O=C1Cc2cc(-c3cc(F)c4c(=O)n(-c5cncc(Cl)c5)c(=O)n(Cc5cc(Cl)c(F)cn5)c4c3)c(Cl)cc2N1` [Compound I-0077], the IC50 was less than 100 nM.

On to `COc1cc(-c2nc(NS(C)(=O)=O)ccc2Cl)cc2c1c(=O)n(-c1cncc(C)c1)c(=O)n2Cc1cc(F)c(F)c(F)c1` [Compound I-0078], for which the IC50 was less than 100 nM.

On to `COc1cc(-c2cc(NS(C)(=O)=O)ccc2Cl)cc2c1c(=O)n(-c1cncc(Cl)c1)c(=O)n2Cc1cc(F)c(F)c(F)c1` [Compound I-0079], for which the IC50 is less than 100 nM.

As to `Cn1cnc(Cn2c(=O)c3c(F)cc(-c4cc(-c5nnc(N)o5)ccc4Cl)cc3n(Cc3cc(F)c(F)c(F)c3)c2=O)n1` [Compound I-0080], the IC50 worked out at 34 nM.

For the molecule `COc1cc(-c2cc3c[nH]nc3cc2Cl)cc2c1c(=O)n(Cc1ncn(C)n1)c(=O)n2Cc1cc(F)c(F)c(F)c1` [Compound I-0115], the IC50 worked out at 9.3 nM.

As for `Cn1cnc(Cn2c(=O)c3c(Cl)cc(-c4cc5c(cc4Cl)NC(=O)C5)cc3n(Cc3cc(Cl)c(F)cn3)c2=O)n1` [Compound I-0117], the IC50 is less than 100 nM.

Take `COc1cc(-c2cc(S(N)(=O)=O)ccc2Cl)cc2c1c(=O)n(Cc1ncn(C)n1)c(=O)n2Cc1cc(F)c(F)c(F)c1` [Compound I-0118]: the IC50 is less than 100 nM.

On to `Cn1cnc(Cn2c(=O)c3c(F)cc(-c4cc5c(cc4Cl)NC(=O)C54CC4)cc3n(Cc3cc(F)c(F)c(F)c3)c2=O)n1` [Compound I-0119], for which the IC50 was 23 nM.

In the case of `COc1cc(-c2cc(-c3ncc[nH]3)ccc2Cl)cc2c1c(=O)n(-c1cncc(Cl)c1)c(=O)n2Cc1ccc(F)c(C#N)c1` [Compound I-0120], the IC50 is less than 100 nM.

As for `Cn1cnc(Cn2c(=O)c3ncc(-c4cc5c(cc4Cl)NC(=O)C5)cc3n(Cc3cc(F)c(F)c(Cl)c3)c2=O)n1` [Compound I-0121], the IC50 is less than 100 nM.

As for `COc1cc(-c2cc(S(C)(=O)=O)ccc2Cl)cc2c1c(=O)n(Cc1ncn(C)n1)c(=O)n2Cc1cc(F)c(F)c(F)c1` [Compound I-0122], the IC50 was found to be 27 nM.

For `COc1cc(-c2cc(-c3ncc[nH]3)ccc2Cl)cc2c1c(=O)n(Cc1ncn(C)n1)c(=O)n2Cc1cc(F)c(F)c(F)c1` [Compound I-0123], the IC50 is less than 100 nM.

For the molecule `COc1cc(-c2c(Cl)ccc3ncccc23)cc2c1c(=O)n(Cc1ncn(C)n1)c(=O)n2Cc1cc(F)c(F)c(F)c1` [Compound I-0124], the IC50 was less than 100 nM.

As for `COc1cc(-c2cc3c(cc2Cl)NC(=O)CC3)cc2c1c(=O)n(Cc1ncn(C)n1)c(=O)n2Cc1cc(F)c(F)c(F)c1` [Compound I-0125], the IC50 stood at 32 nM.

Consider `COc1cc(-c2cc(NS(C)(=O)=O)ccc2Cl)cc2c1c(=O)n(Cc1ncn(C)n1)c(=O)n2Cc1cc(F)c(F)c(F)c1` [Compound I-0136], for which the IC50 is less than 100 nM.

In the case of `O=c1[nH]cccc1Cn1c(=O)c2ccc(N3C[C@H]4C[C@@H]3CN4)cc2n(Cc2cc(F)c(F)c(F)c2)c1=O` [Compound I-0140], the IC50 came out at 1.3 nM.

Regarding `O=c1[nH]cccc1Cn1c(=O)c2ccc(N3C[C@@H]4C[C@H]3CN4)cc2n(Cc2cc(F)c(F)c(F)c2)c1=O` [Compound I-0141], the IC50 was less than 100 nM.

Take `NC1CCN(c2ccc3c(=O)n(Cc4ccc[nH]c4=O)c(=O)n(Cc4cc(F)c(F)c(F)c4)c3c2)C1` (stereo not shown) [Compound I-0142]: the IC50 amounted to 25 nM.

As to `COc1cc(-c2cc3c(cc2Cl)NC(=O)C3)cc2c1c(=O)n(-c1cncc(C)c1)c(=O)n2Cc1cc(F)c(F)c(C#N)c1` [Compound I-0161], the IC50 turned out to be 0.75 nM.

As for `Cn1cnc(Cn2c(=O)c3c(=O)n(C)c(-c4cc(C#N)ccc4Cl)cc3n(Cc3cc(F)c(F)c(Cl)c3)c2=O)n1` [Compound I-0162], the IC50 came to 0.8 nM.

Consider `COc1cc(-c2cc(C#N)ccc2Cl)cc2c1c(=O)n(-c1cncc(C)c1)c(=O)n2Cc1cc(F)c(F)c(C#N)c1` [Compound I-0165], for which the IC50 came to 1.2 nM.

In the case of `Cn1cnc(Cn2c(=O)c3c(=O)n(C)c(-c4cc(C#N)ccc4Cl)cc3n(Cc3cc(F)c(F)c(F)c3)c2=O)n1` [Compound I-0169], the IC50 turned out to be 2.7 nM.

On to `Cn1cnc(Cn2c(=O)c3c(Cl)cc(-c4cc5c(cc4Cl)NC(=O)C5)cc3n(Cc3cc(F)c(F)c(Cl)c3)c2=O)n1` [Compound I-0171], for which the IC50 was 3.2 nM.

Turning to `Cn1cnc(Cn2c(=O)c3c(=O)[nH]c(-c4cc(C#N)ccc4Cl)cc3n(Cc3cc(F)c(F)c(Cl)c3)c2=O)n1` [Compound I-0172], the IC50 is less than 100 nM.

Regarding `Cn1cnc(Cn2c(=O)c3c(Cl)cc(-c4cc5cn[nH]c5cc4Cl)cc3n(Cc3cc(F)c(F)c(Cl)c3)c2=O)n1` [Compound I-0173], the IC50 was less than 100 nM.

For `COc1nc(-c2cc(C#N)ccc2Cl)cc2c1c(=O)n(Cc1ncn(C)n1)c(=O)n2Cc1cc(F)c(F)c(Cl)c1` [Compound I-0174], the IC50 is 16 nM.

Consider `Cn1cnc(Cn2c(=O)c3c(Cl)cc(-c4cc(C#N)ccc4Cl)cc3n(Cc3cc(F)c(F)c(Cl)c3)c2=O)n1` [Compound I-0175], for which the IC50 is less than 100 nM.

For the molecule `COc1nc(-c2cc(C#N)ccc2Cl)cc2c1c(=O)n(Cc1ncn(C)n1)c(=O)n2Cc1cc(F)c(F)c(F)c1` [Compound I-0176], the IC50 stood at 33 nM.

With `Cn1cnc(Cn2c(=O)c3c(=O)[nH]c(-c4cc(C#N)ccc4Cl)cc3n(Cc3cc(F)c(F)c(F)c3)c2=O)n1` [Compound I-0177], the IC50 amounted to 34 nM.

Take `COc1nc(-c2cc(C#N)ccc2Cl)cc2c1c(=O)n(-c1cncc(Cl)c1)c(=O)n2Cc1cc(F)c(F)c(F)c1` [Compound I-0178]: the IC50 was less than 100 nM.

For `COc1cc(-c2cc(CC(=O)NC3CCN(C)CC3)ccc2Cl)cc2c1c(=O)n(-c1cncc(Cl)c1)c(=O)n2Cc1cc(Cl)ccc1C` [Compound I-0187], the IC50 was determined as 5 nM.

Consider `COc1cc(-c2cc(S(C)(=N)=O)ccc2Cl)cc2c1c(=O)n(-c1cncc(Cl)c1)c(=O)n2Cc1cc(F)c(F)c(F)c1` (stereo not shown) [Compound I-0188], for which the IC50 came out at 5.8 nM.

With `COc1cc(-c2cc(CC(=O)NCCN(C)C)ccc2Cl)cc2c1c(=O)n(-c1cncc(Cl)c1)c(=O)n2Cc1cc(Cl)ccc1C` [Compound I-0189], the IC50 was found to be 7.1 nM.

Regarding `COc1cc(-c2cc(CC(N)=O)ccc2Cl)cc2c1c(=O)n(-c1cncc(Cl)c1)c(=O)n2Cc1cc(Cl)ccc1C` [Compound I-0191], the IC50 was less than 100 nM.

The record behind these values is patent publication US20240400560A1, “BICYCLIC HETEROCYCLIC DERIVATIVE HAVING VIRAL GROWTH INHIBITORY ACTIVITY AND PHARMACEUTICAL COMPOSITION CONTAINING SAME” (Shionogi & Co., Ltd., priority 2021, published 2024).
